Experiments:
patients = assay: Overall clinical safety experience of topical ocular reproxalap; format: in vivo, human
[1] = test system: RASP (reactive aldehyde species); assay: In vitro RASP elimination by reproxalap; format: biochemical; conditions: reproxalap at equimolar concentrations
From the text: Regarding the use of tear RASP levels as a clinical endpoint, it is important to note that this is (to date) unprecedented. The FDA has not agreed to the use of RASP before as a clinical endpoint. In this regard, we have reached agreement with the US Food and Drug Administration (FDA) for the use of RASP (reactive aldehyde species) as an objective sign for the treatment of dry eye disease. RASP are pre-cytokine pro-inflammatory mediators that are elevated in the tears of patients with dry eye disease, and correlate with dry eye disease symptoms and signs. […] In in vitro studies, RASP were eliminated within 60 to 90 minutes when exposed to reproxalap at equimolar concentrations. […] The use of RASP as a trial endpoint represents the first novel objective sign for the treatment in dry eye disease in over a decade.

[2] = test system: subjects with dry eye disease; assay: Phase 2/3 (TRANQUILITY) run-in cohort, dry eye signs and symptoms (environmental dosing and dry eye chamber); format: in vivo, human
Experimental: Changes over 24 hours after the first dose on Day 1 and changes over 90 minutes in the CAE will be assessed via mixed effect model for repeated measures (MMRM) of change from baseline (pre-dose Day 1), with baseline score as a covariate, and time and test article group as factors. For assessments that include both eyes, eye will be added as a factor.
Schirmer's Test will be assessed via MMRM of change from baseline (screening), with baseline score as a covariate, and pre/post dose, eye, and test article group as factors.
This study is a Phase 2/3, multi-center, randomized, double-masked, parallel design, vehicle-controlled trial designed to evaluate the efficacy and safety of 0.25% Reproxalap Ophthalmic Solution compared to vehicle in subjects with dry eye disease. Approximately twenty subjects will be enrolled in the Initial Cohort, and approximately 300 subjects will be enrolled in the Main Cohort. Male and female subjects at least 18 years of age with a subject-reported history of dry eye disease in both eyes and meeting all other eligibility criteria will be randomized to receive reproxalap or vehicle in a 1:1 ratio (approximately 150 subjects in each treatment group).
This study uses a challenge-model of dry eye disease known as a “dry eye chamber.” Challenge-model trials utilizing a controlled chamber are an FDA accepted design for pivotal endpoints. See, for example, FDA published “Dry Eye: Developing Drugs for Treatment” draft guidance; December 2020.
Dry eye chambers control relative humidity, temperature, airflow, and visual tasking in order to stress the ocular surface. Chambers simulate a “bad day” scenario in the life of a dry eye disease sufferer. Trial designs utilizing chambers are able to confirm the utility of drugs with rapid onset of action during an acute ocular surface challenge.
Secondary Endpoints: • Visual analog scale eye dryness score assessed over 24 hours after first dose on Day 1, and over 90 minutes in CAE® (Key Secondary Symptom Endpoint) • Ora Calibra® Ocular Discomfort Scale assessed over 24 hours after first dose on Day 1, and over 90 minutes in CAE® • Ocular Discomfort & 4-Symptom Questionnaire assessed over 24 hours after first dose on Day 1, and before and after CAE® • Ora Calibra® Conjunctival Allergen Challenge Ocular Itching Scale assessed over 24 hours after first dose on Day 1, and before and after CAE® • Schirmer's Test change from baseline before and after the final dose on Day 1 • Change in tear RASP levels before and after Dose 1 and 2 on Day 1 and Dose 3 on Day 2. Conjunctival redness over 24 hours after first dose on Day 1.
Visit 1 (Day −14 −16/+2, Screening) • Informed Consent and HIPAA • Demographics (e.g. gender, date of birth, race, ethnicity) • Medical/Medication & Ocular History • Urine Pregnancy Test (as needed) • Symptom Questionnaires: • a. Ocular Discomfort & 4-Symptom Questionnaire • b. Ora Calibra® Ocular Discomfort Scale • c. Ocular Dryness Visual Analog Scale • d. Ora Calibra® Conjunctival Allergen Challenge Ocular Itching Scale • Visual Acuity (ETDRS) • Slit Lamp Biomicroscopy with Conjunctival Redness assessment • Fluorescein Staining using the Ora Calibra® Corneal and Conjunctival Staining Scale • Inclusion/Exclusion Criteria Review • In-Office Vehicle Instillation by trained site staff (within 10 minutes prior to CAE® entry) • CAE® Exposure (90 minutes, vehicle administration at 45 minutes) with: • a. Ocular Dryness Visual Analog Scale every 5 minutes • b. Ora Calibra® Ocular Discomfort Scale every 5 minutes • c. Conjunctival Redness Photography at 0, 5, 10, 15, 20, 30, 45 (before 45-minute dose), 50, 55, 60, 65, 75, 90 minutes (+/−2 minutes) via digital photography • Slit Lamp Biomicroscopy with Conjunctival Redness assessment • Schirmer Test • Intraocular Pressure • Dilated Exam • Schedule for Visit 2 […]

[3] = Day 1, 24 hours of QID dosing, N = 12, vehicle +0.1, P 0.006

CC(C)(O)c1nc2ccc(Cl)cc2cc1N [reproxalap, Reproxalap]
most commonly reported adverse event in clinical trials (patients; over 1,100 patients): mild instillation site irritation | observed safety concerns (patients; studied in over 1,100 patients): no observed safety concerns | time to elimination of RASP [1]: 60 to 90 min | Change From Baseline, OD4S: Dryness (0-5) [2, 3]: −1.2 | Change From Baseline, OD4S: Grittiness (0-5) [2, 3]: −1.1 | Change From Baseline, OD4S: Discomfort (0-5) ([2]; Day 1, 24 hours of QID dosing, N = 12, vehicle +0.4, P 0.003): −0.7 | Change From Baseline, Ocular Discomfort Scale (0-4) ([2]; Day 1, 24 hours of QID dosing, N = 12, vehicle +0.4, P 0.07): −0.7 | Change From Baseline, OD4S: Sting (0-5) ([2]; Day 1, 24 hours of QID dosing, N = 12, vehicle +0.4, P 0.23): −0.1 | Change From Baseline, OD4S: Burn (0-5) ([2]; Day 1, 24 hours of QID dosing, N = 12, vehicle +0.8, P 0.07): −0.1 | Change From Baseline, Schirmer's Test ([2]; Day 1, improvement after a single dose, N = 12, vehicle +1.3, P 0.30): +3.4 mm | Change From Baseline, VAS Dryness (0-100) ([2]; after environmental dosing, Day 1, 24 hours of QID dosing, 0.25% reproxalap, N = 12, vehicle +2, P 0.003): −26 | onset of acute improvements in ocular symptoms and objective sign after administration ([2]; dry eye chamber): within minutes | Ocular Discomfort Score vs vehicle ([2]; dry eye chamber, run-in cohort, p<0.0001): statistically significant improvement over vehicle | VAS Ocular Dryness vs vehicle ([2]; dry eye chamber, run-in cohort, p=0.001): statistically significant improvement over vehicle | ocular redness vs vehicle ([2]; dry eye chamber, run-in cohort, p=0.03): statistically significant improvement over vehicle
